{
  "source": "patent US20190125751A1",
  "about": "“ANTICANCER COMBINATION THERAPY” (BOEHRINGER INGELHEIM INTERNATIONAL GMBH, priority 2016, published 2019)",
  "key": {"[1]": {"system": "EGFR-exon 19 deletion+T790M+C797S", "settings": "preclinical models; cited from earlier work"}, "EGFR mutant cell lines": {"system": "EGFR mutant cell lines", "experiment": "cellular proliferation assays comparing EGFR mutant with EGFR wild type cell lines", "type": "cell-based", "settings": "EGFR mutant versus EGFR wild type cell lines", "text": "(§1) Compound A is a small molecule epidermal growth factor receptor (EGFR) mutant-specific inhibitor. […] Compound A is a novel, 3rd generation EGFR mutant-specific TKI, which is currently being investigated in first and second line setting for treatment of patients with EGFR-mutated NSCLC."}, "mutant forms of EGFR": {"system": "mutant forms of EGFR", "experiment": "enzymatic inhibitory activity, mutant forms of EGFR versus wild type EGFR", "type": "biochemical", "settings": "in vitro", "text": "as §1"}, "[2]": {"system": "HCC827 (EGFRDelE746-A750)", "experiment": "in vivo xenograft study in mice, NSCLC model HCC827", "settings": "once daily or twice daily", "text": "as §1"}, "H1975 (EGFRL858R/T790M)": {"system": "H1975 (EGFRL858R/T790M)", "experiment": "in vivo xenograft study in mice, NSCLC model H1975", "settings": "once daily or twice daily", "text": "as §1"}, "[3]": {"settings": "mouse, in vivo", "text": "as §1"}, "[4]": {"system": "T790M-containing cell lines", "settings": "several preclinical models; cited from earlier work"}},
  "data": [
    {"smiles": "C=CC(=O)Nc1cc(Nc2nccc(-c3cn(C)c4ccccc34)n2)c(OC)cc1N(C)CCN(C)C", "note": "[AZD9291, osimertinib]", "values": [
      {"measurement": "sensitivity of the mutant protein to the drug", "setting": "[1]", "value": "resistant"}
    ]},
    {"smiles": "C=CC(=O)Nc1cccc(Oc2nc(Nc3ccc(N4CCN(C)CC4)cc3)nc3ccsc23)c1", "note": "[Compound A, N-(3-{2-[4-(4-methyl-piperazin-1-yl)-phenylamino]-thieno[3,2-d]pyrimidin-4-yloxy}-phenyl)-acrylamide]", "values": [
      {"measurement": "inhibition of proliferation of mutated cell lines at lower concentration than for cells expressing wild type EGFR receptor", "setting": "EGFR mutant cell lines", "value": "approximately 35 fold"},
      {"measurement": "enzymatic inhibitory activity towards mutant forms of EGFR compared to wild type EGFR", "setting": "mutant forms of EGFR", "value": "more potent"},
      {"measurement": "anti-tumor activity as a single agent", "setting": "[2]", "value": "Tumor regressions were observed in all models"},
      {"measurement": "anti-tumor activity as a single agent", "setting": "H1975 (EGFRL858R/T790M)", "value": "Tumor regressions were observed in all models"},
      {"measurement": "tolerability", "setting": "[3]", "value": "tolerated by the mice"}
    ]},
    {"smiles": "CN(C)C/C=C/C(=O)Nc1cc2c(Nc3ccc(F)c(Cl)c3)ncnc2cc1O[C@H]1CCOC1", "note": "[Compound B, afatinib]", "values": [
      {"measurement": "inhibition of T790M-containing cell lines", "setting": "[4]", "value": "effectively inhibit"}
    ]},
    {"smiles": "COc1cc2ncnc(Nc3ccc(F)c(Cl)c3)c2cc1NC(=O)/C=C/CN1CCCCC1", "note": "[dacomitinib]", "values": [
      {"measurement": "inhibition of T790M-containing cell lines", "setting": "[4]", "value": "effectively inhibit"}
    ]}
  ]
}
